Measurements published in the supplement of paper PMC8671470.

What was measured:
Experiment in all cases: cell viability (% survival relative to DMSO control, bortezomib = 0%); higher = less cytotoxic
Conditions in all cases: 72 h
HEL = test system: HEL
Outline: (§1)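 Seeding density for each of the 10 AML and 5 CML cell lines was titrated to the linear growth range. Cells went into 384-well plates pre-printed in duplicate with compounds at 1, 10, 100, 1000 or 10000 nM and were held for 72 h at 37 °C with 5% CO2. CellTiter-Glo luminescence then provided the readout. Percent survival is expressed relative to vehicle at 100% and a 10 µM positive control at 0%, averaged over duplicates.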

MV4-11 = test system: MV4-11
Outline: as §1

Mono-Mac-6 = test system: Mono-Mac-6
Outline: as §1

NOMO-1 = test system: NOMO-1
Outline: as §1

SMILES | cell viability (HEL; 1 nM) [%] | cell viability (HEL; 10 nM) [%] | cell viability (HEL; 100 nM) [%] | cell viability (HEL; 1000 nM) [%] | cell viability (HEL; 10000 nM) [%] | cell viability (MV4-11; 1 nM) [%] | cell viability (MV4-11; 10 nM) [%] | cell viability (MV4-11; 100 nM) [%] | cell viability (MV4-11; 1000 nM) [%] | cell viability (MV4-11; 10000 nM) [%] | cell viability (Mono-Mac-6; 1 nM) [%] | cell viability (Mono-Mac-6; 10 nM) [%] | cell viability (Mono-Mac-6; 100 nM) [%] | cell viability (Mono-Mac-6; 1000 nM) [%] | cell viability (Mono-Mac-6; 10000 nM) [%] | cell viability (NOMO-1; 1 nM) [%] | cell viability (NOMO-1; 10 nM) [%] | cell viability (NOMO-1; 100 nM) [%] | cell viability (NOMO-1; 1000 nM) [%] | cell viability (NOMO-1; 10000 nM) [%]
CC(/C=C1\SC(=S)N(CC(=O)O)C1=O)=C\c1ccccc1 [Epalrestat] | 120 | 94.8 | 99.5 | 95.5 | 112 | 95.3 | 85.8 | 103 | 102 | 110 | 106 | 103 | 103 | 93.9 | 116 | 108 | 101 | 93.4 | 102 | 103
CCOC(=O)[C@@]1(CCCCCCOc2ccc(Cl)cc2)CO1 [Etomoxir] | 105 | 99.6 | 105 | 93.3 | 84.5 | 105 | 97.2 | 99 | 85.3 | 79.3 | 93.5 | 94.4 | 92.9 | 95.7 | 96.3 | 99.5 | 101 | 104 | 92.1 | 102
Cc1c(-c2ccccc2)oc2c(C(=O)OCCN3CCCCC3)cccc2c1=O.Cl [Flavoxate] | 91 | 105 | 107 | 95.3 | 100 | 87.5 | 83.6 | 97.9 | 94.8 | 98.6 | 92.6 | 105 | 101 | 96 | 94.6 | 93.8 | 105 | 99.3 | 97.1 | 99.6
O=C(O)CCc1ccc(NCc2cccc(Oc3ccccc3)c2)cc1 [GW9508] | 112 | 105 | 101 | 109 | 104 | 98.2 | 98.7 | 103 | 103 | 106 | 101 | 104 | 108 | 110 | 104 | 92.8 | 96.6 | 108 | 108 | 104
c1ccc2c(c1)OCC(=C1NCCN1)O2 [Idazoxan] | 96.4 | 112 | 85.6 | 95.1 | 90.4 | 82.3 | 106 | 80.6 | 82.9 | 89.1 | 102 | 106 | 91.1 | 89.1 | 102 | 98.9 | 104 | 94.4 | 92.2 | 89.3
C[C@]12O[C@H](C[C@]1(O)CO)n1c3ccccc3c3c4c(c5c6ccccc6n2c5c31)CNC4=O [Lestaurtinib] | 95.5 | 90.4 | 33.2 | 19.1 | 4.54 | 73.6 | 7.97 | -0.544 | 0.552 | 0.212 | 83.4 | 54.1 | 4.06 | 0.62 | 0.201 | 100 | 92.3 | 68.1 | 9.73 | 0.0124
O=C(O)c1nn(Cc2ccc(Cl)cc2Cl)c2ccccc12 [Lonidamine] | 102 | 111 | 120 | 99.5 | 106 | 78.5 | 96.2 | 88.9 | 98.1 | 106 | 106 | 111 | 102 | 87.5 | 72.5 | 96.7 | 99.9 | 107 | 106 | 105
C1CCc2nnc(C34CC5CC(CC(C5)C3)C4)n2CC1 [MERCK-544] | 104 | 106 | 95.2 | 92.4 | 132 | 97.8 | 100 | 102 | 87.3 | 106 | 95.9 | 100 | 93.3 | 97.7 | 96 | 102 | 95.8 | 89.3 | 97.4 | 109
CC(Cc1ccc(O)c(O)c1)C(C)Cc1ccc(O)c(O)c1 (stereo not given) [Masoprocol] | 114 | 106 | 137 | 114 | 79.8 | 108 | 91.6 | 92.5 | 97.2 | 9.84 | 86.6 | 109 | 102 | 84.2 | 22.8 | 97 | 104 | 101 | 111 | 56.2
CC(C(=O)O)C(=O)O [Methylmalonate] | 87.5 | 100 | 109 | 81.5 | 95.3 | 94.7 | 80.3 | 107 | 97.1 | 102 | 96.2 | 93 | 106 | 96.1 | 90.3 | 95.4 | 94.6 | 97.2 | 94 | 96.1
COc1c(C)c2c(c(O)c1C/C=C(\C)CCC(=O)O)C(=O)OC2 [Mycophenolic acid] | 94.5 | 108 | 104 | 51.7 | 3.56 | 103 | 94.5 | 90.7 | 26.5 | -0.47 | 104 | 99.7 | 108 | 80 | 16.4 | 103 | 96.6 | 106 | 89.2 | 24.7
C1CCC(C(CC2CCCCN2)C2CCCCC2)CC1.O=C(O)/C=C\C(=O)O (stereo not given) [Perhexiline] | 108 | 82.7 | 108 | 91.3 | 14.1 | 100 | 101 | 95.3 | 91.8 | 0.781 | 91.8 | 87.4 | 85.9 | 98.6 | 1.23 | 91.6 | 82.6 | 88.7 | 94.9 | 25.9
